Measurements taken from US20070149535A1, “Protein kinase inhibitors” (ONCALIS AG, priority 2004, published 2007).

Assays:
Assay in all cases: Yeast growth assay, specificity profiling;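 as to EGFR (L858R) growth restoration: Parenthesized + marks a result obtained in a different yeast background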
Format in all cases: cell-based
[1] = molecular target: T1, RET (Homo sapiens, UniProt P07949); set-up: key: “−” indicates no growth restoration i.e. no activity against the particular kinase; “+”, “++”, and “+++” indicate activity detected by restoration of growth, classified into three categories of potency; “+”, “++”, and “+++” indicate activity detected by restoration of growth, classified into three categories of potency; “+”, “++”, and “+++” indicate activity detected by restoration of growth, classified into three categories of potency; settings: 7 concentrations between 0.2 and 100 μM
T1 construct: expressed in transfected cells; host or cells: yeast
T1 sequence (P07949 29-1114): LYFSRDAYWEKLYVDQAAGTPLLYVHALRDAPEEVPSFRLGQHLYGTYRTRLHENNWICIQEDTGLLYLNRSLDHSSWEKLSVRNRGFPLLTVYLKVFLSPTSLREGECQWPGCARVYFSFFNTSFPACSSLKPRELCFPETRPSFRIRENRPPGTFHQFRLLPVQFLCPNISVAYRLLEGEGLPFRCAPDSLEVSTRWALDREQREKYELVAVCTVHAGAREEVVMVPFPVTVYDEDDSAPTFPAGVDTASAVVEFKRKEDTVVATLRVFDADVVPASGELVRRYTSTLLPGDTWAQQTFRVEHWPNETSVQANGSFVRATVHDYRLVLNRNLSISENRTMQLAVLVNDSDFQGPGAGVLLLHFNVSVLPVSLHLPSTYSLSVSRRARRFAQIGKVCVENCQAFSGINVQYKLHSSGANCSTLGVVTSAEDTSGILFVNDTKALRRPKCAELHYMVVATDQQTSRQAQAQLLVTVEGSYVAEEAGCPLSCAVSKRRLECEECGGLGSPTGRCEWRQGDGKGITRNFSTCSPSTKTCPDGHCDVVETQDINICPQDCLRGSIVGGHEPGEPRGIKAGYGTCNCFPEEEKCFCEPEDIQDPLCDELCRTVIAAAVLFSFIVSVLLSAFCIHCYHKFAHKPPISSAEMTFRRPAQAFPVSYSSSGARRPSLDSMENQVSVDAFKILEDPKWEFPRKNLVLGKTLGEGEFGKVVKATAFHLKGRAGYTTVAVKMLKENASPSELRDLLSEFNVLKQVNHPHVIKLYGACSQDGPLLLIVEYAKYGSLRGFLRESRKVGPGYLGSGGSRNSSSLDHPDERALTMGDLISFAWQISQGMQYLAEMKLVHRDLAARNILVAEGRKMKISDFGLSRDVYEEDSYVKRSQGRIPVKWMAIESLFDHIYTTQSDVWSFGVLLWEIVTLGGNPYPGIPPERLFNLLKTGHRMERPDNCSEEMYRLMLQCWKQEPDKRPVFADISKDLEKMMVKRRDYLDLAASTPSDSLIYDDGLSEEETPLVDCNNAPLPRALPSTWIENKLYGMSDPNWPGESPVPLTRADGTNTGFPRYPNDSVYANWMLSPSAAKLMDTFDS
Method: (§1) Specificity Profiling: Yeast Growth Assay
(§2) The yeast growth assay was performed as described in “Method for the identification and/or validation of receptor tyrosine kinase inhibitors” PCT/CH03/00694 (2004/10/24), section “Modes for Carrying out the Invention, Experiment 1 and Experiment 2.
(§3) Briefly, yeast cells carrying plasmids with the RTK of interest were grown in glucose containing medium (repressing expression). The cultures were diluted into galactose containing medium, which induces the expression of the kinase. Expression of the kinase inhibits growth of the yeast cells, which allows for positive selection of kinase inhibitors restoring growth of cells. Compounds were titrated at 7 concentrations between 0.2 and 100 μM.
(§4) Specificity profiling of compounds, using the yeast growth assay method described above. “−” indicates no growth restoration i.e. no activity against the particular kinase, “+”, “++”, and “+++” indicate activity detected by restoration of growth, classified into three categories of potency according to the maximal level of growth restoration reached and the concentration at which the maximal growth restoration is reached.

[2] = molecular target: T2, EphB2 (Homo sapiens, UniProt P29323); set-up: key: “−” indicates no growth restoration i.e. no activity against the particular kinase; “+”, “++”, and “+++” indicate activity detected by restoration of growth, classified into three categories of potency; “+”, “++”, and “+++” indicate activity detected by restoration of growth, classified into three categories of potency; “+”, “++”, and “+++” indicate activity detected by restoration of growth, classified into three categories of potency; settings: 7 concentrations between 0.2 and 100 μM
T2 construct: expressed in transfected cells; host or cells: yeast
T2 sequence (P29323 19-1055): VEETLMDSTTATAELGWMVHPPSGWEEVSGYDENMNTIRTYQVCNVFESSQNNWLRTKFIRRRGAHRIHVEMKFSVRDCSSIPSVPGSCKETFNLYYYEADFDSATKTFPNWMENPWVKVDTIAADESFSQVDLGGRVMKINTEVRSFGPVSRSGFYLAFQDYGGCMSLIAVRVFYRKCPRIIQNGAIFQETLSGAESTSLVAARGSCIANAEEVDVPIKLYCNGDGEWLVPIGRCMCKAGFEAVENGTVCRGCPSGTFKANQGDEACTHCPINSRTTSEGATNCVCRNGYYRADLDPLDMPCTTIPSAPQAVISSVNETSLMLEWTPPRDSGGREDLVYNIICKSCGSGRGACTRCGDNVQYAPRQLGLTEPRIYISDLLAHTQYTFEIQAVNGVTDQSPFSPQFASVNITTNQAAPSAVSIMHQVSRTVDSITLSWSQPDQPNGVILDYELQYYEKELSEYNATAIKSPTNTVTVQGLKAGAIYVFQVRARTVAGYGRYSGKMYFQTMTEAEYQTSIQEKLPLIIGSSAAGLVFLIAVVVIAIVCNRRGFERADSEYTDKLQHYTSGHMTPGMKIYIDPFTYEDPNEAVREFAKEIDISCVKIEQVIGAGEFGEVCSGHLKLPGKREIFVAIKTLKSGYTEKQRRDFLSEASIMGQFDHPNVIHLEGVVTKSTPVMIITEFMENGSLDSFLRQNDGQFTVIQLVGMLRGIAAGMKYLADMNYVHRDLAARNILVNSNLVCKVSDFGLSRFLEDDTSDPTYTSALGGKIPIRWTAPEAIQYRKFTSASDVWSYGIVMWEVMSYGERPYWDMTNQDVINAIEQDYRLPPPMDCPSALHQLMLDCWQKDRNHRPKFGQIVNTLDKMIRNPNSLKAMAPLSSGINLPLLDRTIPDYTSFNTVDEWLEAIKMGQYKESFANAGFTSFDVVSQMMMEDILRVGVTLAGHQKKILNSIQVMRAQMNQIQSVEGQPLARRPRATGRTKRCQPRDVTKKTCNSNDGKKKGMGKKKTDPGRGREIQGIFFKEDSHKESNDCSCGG
Method: as §1, §2, §3, §4

[3] = molecular target: T3, VEGFR2 (Homo sapiens, UniProt P35968); set-up: key: “−” indicates no growth restoration i.e. no activity against the particular kinase; “+”, “++”, and “+++” indicate activity detected by restoration of growth, classified into three categories of potency; “+”, “++”, and “+++” indicate activity detected by restoration of growth, classified into three categories of potency; “+”, “++”, and “+++” indicate activity detected by restoration of growth, classified into three categories of potency; settings: 7 concentrations between 0.2 and 100 μM
T3 construct: expressed in transfected cells; host or cells: yeast
T3 sequence (P35968 20-1356): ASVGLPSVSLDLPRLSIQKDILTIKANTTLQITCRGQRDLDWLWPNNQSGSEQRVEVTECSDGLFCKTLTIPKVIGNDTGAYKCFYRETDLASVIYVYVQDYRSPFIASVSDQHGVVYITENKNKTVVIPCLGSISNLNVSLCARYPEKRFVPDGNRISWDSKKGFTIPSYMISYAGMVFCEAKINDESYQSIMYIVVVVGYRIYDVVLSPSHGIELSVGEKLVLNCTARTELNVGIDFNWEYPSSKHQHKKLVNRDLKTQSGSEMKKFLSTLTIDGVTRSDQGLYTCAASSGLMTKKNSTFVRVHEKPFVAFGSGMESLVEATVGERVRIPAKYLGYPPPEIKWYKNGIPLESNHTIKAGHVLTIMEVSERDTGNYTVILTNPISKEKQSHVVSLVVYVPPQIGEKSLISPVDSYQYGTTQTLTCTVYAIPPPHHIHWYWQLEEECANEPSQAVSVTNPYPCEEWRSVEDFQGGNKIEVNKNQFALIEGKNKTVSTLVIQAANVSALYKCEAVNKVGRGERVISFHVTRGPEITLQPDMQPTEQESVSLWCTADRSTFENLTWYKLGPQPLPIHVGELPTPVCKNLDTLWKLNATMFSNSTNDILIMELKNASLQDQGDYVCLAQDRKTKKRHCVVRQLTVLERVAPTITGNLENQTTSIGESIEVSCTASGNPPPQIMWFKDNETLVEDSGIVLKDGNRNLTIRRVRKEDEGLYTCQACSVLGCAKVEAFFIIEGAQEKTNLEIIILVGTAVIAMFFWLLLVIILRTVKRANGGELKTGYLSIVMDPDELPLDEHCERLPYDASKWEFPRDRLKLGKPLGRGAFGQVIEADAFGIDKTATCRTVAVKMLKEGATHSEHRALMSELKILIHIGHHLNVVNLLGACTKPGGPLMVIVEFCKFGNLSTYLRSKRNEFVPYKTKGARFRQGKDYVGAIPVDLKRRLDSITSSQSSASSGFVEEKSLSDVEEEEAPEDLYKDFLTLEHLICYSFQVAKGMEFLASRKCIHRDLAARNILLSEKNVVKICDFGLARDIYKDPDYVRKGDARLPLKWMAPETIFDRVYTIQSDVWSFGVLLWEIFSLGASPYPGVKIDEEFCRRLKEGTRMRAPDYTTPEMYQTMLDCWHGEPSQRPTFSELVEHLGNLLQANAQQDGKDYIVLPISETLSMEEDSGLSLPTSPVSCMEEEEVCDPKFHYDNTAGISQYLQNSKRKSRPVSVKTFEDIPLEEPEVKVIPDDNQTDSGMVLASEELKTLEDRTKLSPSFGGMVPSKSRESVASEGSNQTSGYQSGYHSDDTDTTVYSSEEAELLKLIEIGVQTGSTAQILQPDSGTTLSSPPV
Method: as §1, §2, §3, §4

[4] = molecular target: T4, VEGFR1 (Homo sapiens, UniProt P17948); set-up: key: “−” indicates no growth restoration i.e. no activity against the particular kinase; “+”, “++”, and “+++” indicate activity detected by restoration of growth, classified into three categories of potency; “+”, “++”, and “+++” indicate activity detected by restoration of growth, classified into three categories of potency; “+”, “++”, and “+++” indicate activity detected by restoration of growth, classified into three categories of potency; settings: 7 concentrations between 0.2 and 100 μM
T4 construct: expressed in transfected cells; host or cells: yeast
Method: as §1, §2, §3, §4

[5] = molecular target: T5, EphA2 (Homo sapiens, UniProt P29317); set-up: key: “−” indicates no growth restoration i.e. no activity against the particular kinase; “+”, “++”, and “+++” indicate activity detected by restoration of growth, classified into three categories of potency; “+”, “++”, and “+++” indicate activity detected by restoration of growth, classified into three categories of potency; “+”, “++”, and “+++” indicate activity detected by restoration of growth, classified into three categories of potency; settings: 7 concentrations between 0.2 and 100 μM
T5 construct: expressed in transfected cells; host or cells: yeast
T5 sequence (P29317 24-976): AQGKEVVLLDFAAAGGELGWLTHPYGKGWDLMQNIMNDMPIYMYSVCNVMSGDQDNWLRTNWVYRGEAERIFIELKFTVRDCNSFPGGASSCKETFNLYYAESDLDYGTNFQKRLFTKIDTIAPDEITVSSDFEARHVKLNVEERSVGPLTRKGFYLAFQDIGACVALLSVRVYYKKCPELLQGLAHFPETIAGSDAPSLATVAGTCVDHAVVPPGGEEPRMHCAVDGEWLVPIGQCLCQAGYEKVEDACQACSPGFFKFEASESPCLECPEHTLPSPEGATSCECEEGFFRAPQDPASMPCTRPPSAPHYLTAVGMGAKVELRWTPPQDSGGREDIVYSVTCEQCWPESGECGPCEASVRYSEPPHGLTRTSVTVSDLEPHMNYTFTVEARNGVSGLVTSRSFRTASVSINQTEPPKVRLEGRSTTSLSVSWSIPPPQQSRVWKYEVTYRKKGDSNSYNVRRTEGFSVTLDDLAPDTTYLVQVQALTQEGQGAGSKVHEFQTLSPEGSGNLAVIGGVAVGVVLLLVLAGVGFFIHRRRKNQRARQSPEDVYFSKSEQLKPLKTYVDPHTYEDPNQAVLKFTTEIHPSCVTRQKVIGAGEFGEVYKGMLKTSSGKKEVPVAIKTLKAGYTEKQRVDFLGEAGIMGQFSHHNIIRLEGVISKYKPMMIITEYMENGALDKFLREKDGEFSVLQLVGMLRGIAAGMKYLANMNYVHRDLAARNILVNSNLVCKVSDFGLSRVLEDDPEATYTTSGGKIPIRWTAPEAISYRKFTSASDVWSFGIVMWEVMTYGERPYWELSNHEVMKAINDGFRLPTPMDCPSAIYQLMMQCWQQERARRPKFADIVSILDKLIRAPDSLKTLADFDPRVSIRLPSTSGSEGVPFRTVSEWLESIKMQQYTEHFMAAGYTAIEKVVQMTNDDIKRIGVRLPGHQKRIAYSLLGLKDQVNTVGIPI
Method: as §1, §2, §3, §4

[6] = molecular target: T6, TEK (Homo sapiens, UniProt Q02763); set-up: key: “−” indicates no growth restoration i.e. no activity against the particular kinase; “+”, “++”, and “+++” indicate activity detected by restoration of growth, classified into three categories of potency; “+”, “++”, and “+++” indicate activity detected by restoration of growth, classified into three categories of potency; “+”, “++”, and “+++” indicate activity detected by restoration of growth, classified into three categories of potency; settings: 7 concentrations between 0.2 and 100 μM
T6 construct: expressed in transfected cells; host or cells: yeast
T6 sequence (Q02763 23-1124): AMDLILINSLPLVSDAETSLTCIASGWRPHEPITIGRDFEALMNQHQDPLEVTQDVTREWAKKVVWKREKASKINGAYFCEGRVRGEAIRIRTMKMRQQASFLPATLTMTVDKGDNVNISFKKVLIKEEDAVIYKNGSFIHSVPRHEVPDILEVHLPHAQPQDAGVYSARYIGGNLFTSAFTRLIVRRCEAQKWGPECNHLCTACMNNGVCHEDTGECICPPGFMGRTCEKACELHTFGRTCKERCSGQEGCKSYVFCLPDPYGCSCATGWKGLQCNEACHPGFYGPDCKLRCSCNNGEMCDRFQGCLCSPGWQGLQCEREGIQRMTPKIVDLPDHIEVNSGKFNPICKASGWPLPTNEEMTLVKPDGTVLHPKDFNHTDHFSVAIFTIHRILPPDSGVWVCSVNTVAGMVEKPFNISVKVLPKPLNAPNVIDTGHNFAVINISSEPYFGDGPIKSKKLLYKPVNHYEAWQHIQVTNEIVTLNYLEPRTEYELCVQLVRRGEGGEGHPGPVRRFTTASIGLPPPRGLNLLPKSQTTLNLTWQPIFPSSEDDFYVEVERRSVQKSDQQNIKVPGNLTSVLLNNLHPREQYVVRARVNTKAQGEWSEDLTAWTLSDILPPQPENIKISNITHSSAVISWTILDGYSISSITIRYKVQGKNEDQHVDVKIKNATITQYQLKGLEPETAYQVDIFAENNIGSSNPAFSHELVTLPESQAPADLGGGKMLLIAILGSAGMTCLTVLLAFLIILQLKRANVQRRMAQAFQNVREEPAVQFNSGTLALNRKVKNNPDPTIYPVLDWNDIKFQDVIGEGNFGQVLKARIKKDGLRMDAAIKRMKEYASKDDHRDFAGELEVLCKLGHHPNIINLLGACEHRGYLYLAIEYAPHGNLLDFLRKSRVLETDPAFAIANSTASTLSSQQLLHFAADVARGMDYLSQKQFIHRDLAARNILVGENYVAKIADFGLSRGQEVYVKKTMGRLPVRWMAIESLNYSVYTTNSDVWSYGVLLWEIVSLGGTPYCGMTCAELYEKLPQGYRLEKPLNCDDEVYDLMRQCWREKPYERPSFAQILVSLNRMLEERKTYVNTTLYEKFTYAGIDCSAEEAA
Method: as §1, §2, §3, §4

[7] = molecular target: T7, EGFR (L858R) (Homo sapiens, UniProt P00533, L858R); set-up: key: (+) in a different yeast background; settings: in a different yeast background
T7 construct: expressed in transfected cells; host or cells: yeast
Method: as §1, §2, §3, §4

SMILES	RET growth restoration [1]	EphB2 growth restoration [2]	VEGFR2 growth restoration [3]	VEGFR1 growth restoration [4]	EphA2 growth restoration [5]	TEK growth restoration [6]	EGFR (L858R) growth restoration [7]
CC(C)c1nc2cnccn2c1Nc1cccc(Cl)c1 [compound 12, (3-Chloro-phenyl)-(2-isopropyl-imidazo[1,2-a]pyrazin-3-yl)-amine]	−	+	−	−	+	−	(+)
Fc1cccc(Nc2c(-c3ccccc3)nc3cnccn23)c1 [compound 26, (3-Fluoro-phenyl)-(2-phenyl-imidazo[1,2-a]pyrazin-3-yl)-amine]	−	+	−	−	−	−	(+)
Fc1ccc(Nc2c(-c3ccccc3)nc3cnccn23)cc1F [compound 30, (3,4-Difluoro-phenyl)-(2-phenyl-imidazo[1,2-a]pyrazin-3-yl)-amine]	−	+	−	−	−	−	(+)
CC(=O)Nc1ccc(-c2nc3c(C)nccn3c2Nc2cccc(Cl)c2)cc1 [compound 33, N-{4-[3-(3-Chloro-phenylamino)-8-methyl-imidazo[1,2-a]pyrazin-2-yl]-phenyl}-acetamide]	−	+++	−	−	+	−	(+)
c1ccc(Nc2c(-c3ccc(N4CCOCC4)cc3)nc3cnccn23)cc1 [compound 38, [2-(4-Morpholin-4-yl-phenyl)-imidazo[1,2-a]pyrazin-3-yl]-phenyl-amine]	−	++	−	+	+	−	(+)
COc1cccc(-c2nc3c(C)nccn3c2Nc2cccc(C)c2)c1 [compound 42, [2-(3-Methoxy-phenyl)-8-methyl-imidazo[1,2-a]pyrazin-3-yl]-m-tolyl-amine]	−	+++	−	−	+	−	(+)
COc1cccc(-c2nc3c(C)nccn3c2Nc2cccc(Cl)c2)c1 [compound 48, (3-Chloro-phenyl)-[2-(3-methoxy-phenyl)-8-methyl-imidazo[1,2-a]pyrazin-3-yl]-amine]	−	+++	−	−	+	−	(+)
